# Experimental data from patent US10030225B2, “Cell culture media” (Merck Patent GmbH, priority 2012, dated 2018).
# Structures can show the parent of a compound that is named as a salt.
# Columns and labels:
# [1] = Solubility in water; settings: for solubility (in words): comparison with tyrosine, refers to table 1; for solubility at 20° C. / solubility at 25° C. / solubility at 30° C.: in water
# [2] = system: Recombinant CHO cells; assay: Fed batch process with neutral pH feed containing phospho-Tyr salts, 30 mL spin tubes; format: cell-based; settings: 30 mM in feed at pH 7.0; control tyrosine 2Na+ and Cysteine in separate feed at pH 11
# Description: FIGS. 5 and 6 show the viable cell density and IgG concentration over time in a fed batch process. Recombinant CHO cells are grown in fully chemically defined basal media and a feed containing phospho-Tyr salts at pH 7.0 is added on day 3; 5, 7 and 9 (addition of % v/v of 3%; 6% 6% 6%). […]. In these cases, Cysteine is still added as a separate feed at pH 11.
# The process is performed in 30 mL spin tubes at 37° C., 5% CO2, agitation 320 rpm. For control, according to the state of the art, tyrosine 2Na+ and Cysteine are solubilized at pH 11 in a separate feed and added at day 3; 5; 7; 9 in %(V/V) of 0.3%, 0.6%, 0.6% and 0.6%.
# The glucose concentration is measured every day and adjusted accordingly to maintain a concentration>2 g/L
# [3] = system: cells; assay: Batch experiment in chemically defined medium where Cysteine was replaced by S-sulfocysteine sodium salt; format: cell-based; settings: 1.5 and 3 mM, equivalent concentration to Cysteine
# Description: Batch experiment in chemically defined medium where Cysteine was replaced by S-sulfocysteine sodium salt (equivalent concentration). The CDM powder used as basis was depleted in Cysteine and Cystine and supplemented during reconstitution with Cysteine for the control conditions (1.5 and 3 mM) or with S-sulfocysteine sodium salt for the test conditions (1.5 and 3 mM).
# [4] = system: Recombinant CHO cells; assay: Fed batch process with feed containing S-sulfocysteine and PTyr 2Na+ at pH 7.0, 1.2 L bioreactors; format: cell-based; settings: main feed pH 7.0, in combination with PTyr 2Na+; control tyrosine 2Na+ and Cysteine at pH 11
# Description: FIGS. 7 and 8 show the viable cell density and IgG concentration over time in a fed batch process. Recombinant CHO cells are grown in fully chemically defined basal media and a feed containing both S-sulfocysteine and PTyr 2Na+ at pH 7.0. Feed is added on day 3; 5, 7, 9 and 14 (addition of % v/v of 3%; 6% 6% 6%, 3%). The process is performed in 1.2 L bioreactors at 37° C., pH 7.0, 50% dissolved oxygen, agitation 140 rpm. For control, according to the state of the art, tyrosine 2Na+ and Cysteine are solubilized at pH 11 in a separate feed and added at day 3; 5; 7; 9, 14 in %(V/V) of 0.3%, 0.6%, 0.6%, 0.6%, 0.3%. The glucose concentration is measured every day and adjusted accordingly to maintain a concentration>2 g/L
# [5] = system: cells; assay: Batch experiment in chemically defined medium where tyrosine was replaced by PTyr salts; format: cell-based
# Excerpt: Batch experiment in chemically defined medium where tyrosine was replaced by PTyr salts. PTyr means (S)-2-Amino-3-(4-phosphonooxy-phenyl)-propionic-acid salt.
Compound,solubility (in words) [1],solubility at 20° C. [1] [%],solubility at 25° C. [1] [%],solubility at 30° C. [1] [%],impact on growth (viable cell density) [2],impact on titer (IgG concentration) [2],other results
N[C@@H](Cc1ccc(OP(=O)([O-])O)cc1)C(=O)O.[Na+] [D3],higher solubility,5.5,5.3,11.4,–,–,–
"N[C@@H](Cc1ccc(OP(=O)([O-])O)cc1)C(=O)O.[K+] [PTyr Potassium salt, (S)-2-Amino-3-(4-phosphonooxy-phenyl)-propionic-acid mono potassium salt]",–,–,–,–,no negative impact,no negative impact,–
N[C@@H](Cc1ccc(OP(=O)([O-])[O-])cc1)C(=O)O.[Na+].[Na+] [D4],very good solubility,9.8,10.1,9.2,no negative impact,no negative impact,–
"N[C@H](CSS(=O)(=O)[O-])C(=O)[O-].[Na+].[Na+] [S-sulfocysteine sodium salt, (S)-2-amino-3-sulfosulfanylpropanoic acid sodium salt]",–,–,–,–,–,–,cell growth versus Cysteine control [3]: comparable growth; growth (viable cell density) in comparison to the control [4]: extended growth; titer (IgG concentration) in comparison to the control [4]: significant increase
"N[C@@H](Cc1ccc(OP(=O)(O)O)cc1)C(=O)O [PTyr Magnesium salt, (S)-2-Amino-3-(4-phosphonooxy-phenyl)-propionic-acid 2:1-magnesium salt]",–,–,–,–,no negative impact,no negative impact,–
(S)-2-Amino-3-(4-phosphonooxy-phenyl)-propionic-acid salt [PTyr],–,–,–,–,–,–,maximum viable cell density versus control ([5]; PTyr 4.5 mM in the CDM versus 1 mM tyrosine in the control): even higher; extended growth ([5]; PTyr 4.5 mM in the CDM versus control): 2 days; cell growth ([5]; PTyr at the same concentration as Tyrosine in the medium (1 mM in the control)): cells didn't grow
